# Measured values reported in US10392428B2, “GLP-1 derivatives and uses thereof” (Novo Nordisk A/S, priority 2014, dated 2019).
# Columns and labels:
# [1] = test system: obese, diabetic mouse model (db/db mice); assay: Pharmacodynamic study in db/db mice: acute effect on blood glucose and body weight; type: in vivo
# Description: The purpose of the study is to verify the acute effect of the GLP-1 derivatives on blood glucose (BG) and body weight (BW) in a diabetic setting.
# The GLP-1 derivatives of Examples 2-4 and 6-10 were tested in a single-dose study in an obese, diabetic mouse model (db/db mice) as described in the following.
# Six db/db mice per compound to be tested (from Taconic, Denmark), fed from birth with the diet NIH31 (NIH 31M Rodent Diet, commercially available from Taconic Farms, Inc., US, see www.taconic.com), were enrolled for the study at the age of approximately 10 weeks. At arrival to the animal facility the mice were given free access to standard chow (e.g. Altromin 1324, Brogaarden, Denmark) and tap water and kept at 24° C. After 1-2 weeks of acclimatisation, the basal blood glucose was assessed twice on two consecutive days (i.e. at 9 am). The mice were allocated to treatment groups based on matching blood glucose levels and body weights. […]
# On the day of dosing, blood glucose was assessed at time −½ h (8.30 am), the mice were weighed after this. […] On the day of dosing, blood glucose was assessed at times 1, 2, 4 and 8 h (10 am, 11 am, 1 pm and 5 pm) after dosing.
# On the following days, the blood glucose was assessed at time 24 h, 48 h, 72 h, and 96 h (all Example compounds), and for the GLP-1 derivatives of Examples […] blood glucose was further assessed daily up to 240 h after dosing. […]
# Samples for the measurement of blood glucose were obtained from the tail tip capillary of conscious mice. […] The glucose concentration was measured using the glucose oxidase method (glucose analyser Biosen 5040, EKF Diagnostic, GmbH, Germany). […]
# The data are presented as percent change in blood glucose or body weight measured at the 48 h time points. For example, the percent change in blood glucose level at 48 h for each individual is calculated as follows: [[(blood glucose level at 48 h)−(basal blood glucose level)]/(basal blood glucose level)]×100%], where basal blood glucose level refers to the level before the administration of any treatment−and vice versa for the body weight change. […]
# [2] = target: T1, human GLP-1 receptor (Homo sapiens, UniProt P43220); assay: In vitro potency: CRE luciferase reporter gene assay in BHK cells expressing the human GLP-1 receptor; type: cell-based; details: whole cell reporter gene assay, 3 h incubation, average of at least two replicates
# T1 construct: expressed in transfected cells; host or cells: membrane preparation from BHK cells, clone FCW467-12A (parent line BHKTS13)
# Description: The purpose of this example is to test the activity, or potency, of the GLP-1 derivatives in vitro. The in vitro potency is the measure of human GLP-1 receptor activation in a whole cell assay.
# In vitro potency was determined by measuring the response of the human GLP-1 receptor in a reporter gene assay. The assay was performed in a stably transfected BHK cell line that expresses the human GLP-1 receptor and contains the DNA for the cAMP response element (CRE) coupled to a promoter and the gene for firefly luciferase (CRE luciferase). When the human GLP-1 receptor is activated it results in the production of cAMP, which in turn results in the luciferase protein being expressed. When assay incubation is completed the luciferase substrate (luciferin) is added and the enzyme converts luciferin to oxyluciferin to produce bioluminescence. The luminescence is measured as the readout for the assay.
# The cells were cultured at 5% CO2 in cell culture medium. They were aliquoted and stored in liquid nitrogen. Before each assay an aliquot was taken up and washed twice in PBS before being suspended at the desired concentration in the assay specific buffer.
# Assay medium consisted of DMEM w/o phenol red, 10 mM Hepes and 1χ Glutamax. The assay buffer consisted of 2% ovalbumin and 0.2% Pluronic F-68 in assay medium.
# 1) Cell stocks were thawed in a 37° C. water bath.
# 2) Cells were washed three times in PBS.
# 3) Cells were counted and adjusted to 5×10^3 cells/50 μl (1×10^5 cells/ml) in assay medium. A 50 μl aliquot of cells was transferred to each well in the assay plate.
# 4) Stocks of the test compounds and reference compounds were diluted to a concentration of 0.2 μM in assay buffer. […] 8) A 100 μl aliquot of steadylite plus reagent was added to each well of the assay plate. […] 10) Each assay plate was read in a BioTek Synergy 2 Multi-Mode Reader.
# The data from the BioTek Synergy 2 Multi-Mode Reader were transferred to GraphPad Prism software. […]
# A minimum of two replicates was measured for each sample. The reported EC50 values are averages of all of the measured values for each compound.
# [3] = target: T1, human GLP-1 receptor; assay: GLP-1 receptor binding: competitive binding assay (125I-GLP-1, SPA) on isolated membranes at low and high HSA; details: low HSA (max. 0.001% final assay concentration); read-out: Low HSA IC50
# Description: The purpose of this example is to test the receptor binding of the GLP-1 derivatives in vitro. The receptor binding is a measure of affinity of a derivative for the human GLP-1 receptor.
# Each derivative is added in a series of concentrations to isolated membranes containing the human GLP-1 receptor and displacement of the labelled ligand is monitored. The receptor binding is reported as the concentration at which half of the labelled ligand is displaced from the receptor, the IC50 value.
# Buffer 1 consisted of 20 mM Na-HEPES plus 10 mM EDTA and pH was adjusted to 7.4. Buffer 2 consisted of 20 mM Na-HEPES plus 0.1 mM EDTA and pH was adjusted to 7.4. Assay buffer consisted of 50 mM HEPES supplemented with 5 mM EGTA, 5 mM MgCl2, 0.005% Tween 20 and pH was adjusted to 7.4. An 8% albumin stock consisted of HSA dissolved at 8% (w/v) in assay buffer. An 0.02% albumin stock consisted of HSA dissolved at 0.02% (w/v) in assay buffer.
# The cells express the human GLP-1 receptor.
# The cells were grown at 5% CO2 in DMEM, 10% fetal calf serum, 1% Pen/Strep (Penicillin/Streptomycin) and 1.0 mg/ml of the selection marker G418.
# To make a membrane preparation the cells were grown to approximately 80% confluence. The cells were washed twice in phosphate-buffered saline and harvested. The cells were pelleted using a brief centrifugation and the cell pellet was kept on ice. […] The homogenate was centrifuged for 15 minutes. The pellet was re-suspended (homogenised) in 10 ml buffer 2 and centrifuged. This step was repeated once more. The resulting pellet was re-suspended in buffer 2 and the protein concentration was determined. The membranes were aliquoted and stored at minus 80° C.
# For the receptor binding assay in the presence of low HSA (0.005%) 50 μl of the assay buffer was added to each well of an assay plate.
# For the receptor binding assay in the presence of high HSA (2%) 50 μl of the 8% albumin stock was added to each well of an assay plate.
# Cell membrane aliquots were thawed and diluted to their working concentration. Fifty μl were added to each well in the assay plate.
# WGA SPA beads were suspended in assay buffer at 20 mg/ml. The suspension was diluted to 10 mg/ml in assay buffer just prior to addition to the assay plate. Fifty μl were added to each well in the assay plate.
# A 25 μl aliquot was reserved for measuring total counts/well.
# The assay plate was incubated for 2 h at 30° C.
# The assay plate was centrifuged for 10 min.
# The assay plate was read in a Packard TopCount NXT instrument.
# The data from the TopCount instrument were transferred to Graph Pad Prism software. Individual replicates were analysed using non-linear regression. IC50 values were calculated by the software and reported in nM. The reported values are averages of all of the measured values for each compound.
# [4] = single s.c. dose 10 nmol/kg, 48 h vs basal
# T1 sequence (P43220 24-463): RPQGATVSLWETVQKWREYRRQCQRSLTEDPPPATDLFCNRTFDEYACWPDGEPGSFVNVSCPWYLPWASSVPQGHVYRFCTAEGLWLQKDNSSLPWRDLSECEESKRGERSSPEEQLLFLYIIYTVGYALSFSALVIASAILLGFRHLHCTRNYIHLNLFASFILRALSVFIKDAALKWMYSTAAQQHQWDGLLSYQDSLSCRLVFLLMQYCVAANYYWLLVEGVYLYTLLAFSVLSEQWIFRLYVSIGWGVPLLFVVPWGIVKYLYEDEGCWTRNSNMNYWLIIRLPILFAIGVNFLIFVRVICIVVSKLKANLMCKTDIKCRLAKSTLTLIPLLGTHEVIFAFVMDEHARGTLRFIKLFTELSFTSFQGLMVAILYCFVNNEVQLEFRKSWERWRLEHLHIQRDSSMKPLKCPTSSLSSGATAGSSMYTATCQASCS
smiles,measurement,setting,value
"CC[C@H](C)[C@H](NC(=O)[C@H](Cc1ccccc1)NC(=O)[C@H](CCC(=O)O)NC(=O)[C@H](CCCNC(=N)N)NC(=O)[C@H](C)NC(=O)[C@H](C)NC(=O)[C@H](CCC(N)=O)NC(=O)[C@H](CCC(=O)O)NC(=O)[C@H](CCC(=O)O)NC(=O)[C@H](CC(C)C)NC(=O)[C@H](Cc1ccc(O)cc1)NC(=O)[C@H](CO)NC(=O)[C@H](CO)NC(=O)[C@@H](NC(=O)[C@H](CC(=O)O)NC(=O)[C@H](CO)NC(=O)[C@@H](NC(=O)[C@H](Cc1ccccc1)NC(=O)[C@@H](NC(=O)CNC(=O)[C@H](CCC(=O)O)NC(=O)C(C)(C)NC(=O)[C@@H](N)Cc1c[nH]cn1)[C@@H](C)O)[C@@H](C)O)C(C)C)C(=O)N[C@@H](C)C(=O)N[C@@H](Cc1c[nH]c2ccccc12)C(=O)N[C@@H](CC(C)C)C(=O)N[C@H](C(=O)N[C@@H](CCCNC(=N)N)C(=O)NCC(=O)N[C@@H](CCCNC(=N)N)C(=O)N[C@@H](CCCCNC(=O)[C@@H](N)CCCCNC(=O)[C@@H](N)CCCCNC(=O)[C@@H](N)CCCCNC(=O)[C@@H](N)CCCCNC(=O)[C@H](CCCCNC(=O)CC[C@H](NC(=O)[C@H]1CC[C@H](CNC(=O)CCCCCCCCCCCCCCCCCCC(=O)O)CC1)C(=O)O)NC(=O)CC[C@H](NC(=O)[C@H]1CC[C@H](CNC(=O)CCCCCCCCCCCCCCCCCCC(=O)O)CC1)C(=O)O)C(=O)O)C(C)C [Example 10, N{Epsilon-37}-[(2S)-2-amino-6-[[(2S)-2-amino-6-[[(2S)-2-amino-6-[[(2S)-2-amino-6-[[(2S)-2,6-bis[[(4S)-4-carboxy-4-[[4-[(19-carboxynonadecanoylamino)methyl]cyclohexanecarbonyl]amino]butanoyl]amino]hexanoyl]amino]hexanoyl]amino]hexanoyl]amino]hexanoyl]amino]hexanoyl]-[Aib8,Glu22,Arg26,Arg34,Lys37]-GLP-1-(7-37)-peptide]",effect on BG,"[1]; after 48 h, single s.c. injection of either 3, 10 or 30 nmol/kg",not as pronounced
same,% change in blood glucose,[1]; [4],−3%
same,% change in body weight,[1]; [4],−3%
same,EC50,[2],0.15 nM
same,IC50,[3],19 nM
